From US20240117431A1, “STEM-CELL BASED BIOMARKER DISCOVERY” (THE REGENTS OF THE UNIVERSITY OF CALIFORNIA, priority 2020, published 2024)

Test system: mutant TgUPRT (triple mutants 3×MT, M166A/A168G/Y228A and M166A/A168G/Y228G) in HEK293 cells
Assay: In-cell RNA incorporation by mutant TgUPRT, streptavidin dot blot
Type: cell-based, Toxoplasma gondii
Description: Transfection, labeling of cellular RNA and RNA isolation: After 48h seeding, HEK293 cells were transfected with 2.5 μg of TgUPRT WT or mutant plasmids (pKN-CMV-TgUPRT-WT or -Mutt to Mut17) per 5 cm plate using JetPrime Transfection reagent (Polyplus Transfection, France). At 40h post-transfection, cells were incubated with a final concentration of 200 μM at <1% DMSO from 400 mM stock of uracil analogs (5EU, 5VU, 5AU) or 200 mM SAMU stock for 5 h. For time course study, HEK cells were treated with 200 μM uracil analogs for 0 h, 0.5, 1, 3, 5, 12 and 24 hours. For titrating uracil analog concentration experiments, HEK cells were treated with 0 (DMSO), 50, 100, 200, 500 μM or 1 mM uracil analog for 5h. Treated HEK cells were subjected to total RNA extraction using 1 mL Trizol Reagent (Invitrogen) following the manufacturer instructions.
Biotinylation via CuAAC and IEDDA: Cu-mediated Azide-Alkyne cycloaddition (CuAAC) click reactions were performed in 50 μL reaction at 22° C. on a shaker for 30 min with click reaction cocktail containing 15 μg of total RNA, 1 mM biotin alkyne or biotin azide, fresh 4.6 mM THPTA to a final concentration of 1 mM, and fresh 10.6 mM sodium ascorbate (NaAsc) at final concentration of 1.77 mM, and 12 mM CuSO4 at final concentration of 200 μM in biotinylation reaction buffer (10 mM TrisHCI, 1 mM EDTA, pH7.4). The biotinylated RNA was purified using RNA clean & Concentrator-5 kit (Zymo Research, Cat #R1013) according to the manufacturer instructions and eluted in 21 μL of nuclease free water.
Inverse electron demand [4+2] Diels-Alder cycloaddition (IEDDA) click reactions were performed in 50 μL at 37° C. or 22° C. (RT) for 3h on mixer at 500 rpm containing 10-15 μg of total RNA, 1 mM final concentration of biotin-benzyl tetrazine (Sigma Aldrich, Cat #793329-5MG) in nuclease free water. Clicked total RNA was purified using RNA clean & Concentrator-5 kit (Zymo Research, Cat #R1013) according to the manufacturer instructions, and RNA was eluted in 21 μL of nuclease free water.
HRP-streptavidin dot blot analysis: All gel reagents were from Bio-Rad. […]

`C=Cc1c[nH]c(=O)[nH]c1=O` [compound 2, 5-Vinylpyrimidine-2,4(1H,3H)-dione] was tested, and the “analog incorporation over time with mutant TgUPRT enzymes” value (200 μM time course to 24 h, in comparison to wild-type) was “much more robust over time”, the “time at which analog incorporation was observed” value (200 μM time course, dot blot, FIG. 9B) was 0.5 hr and the “incorporation into RNA by triple mutants (3×MT)” value (200 μM, 5 hours, HEK293T) was “robust incorporation”.
